Among the test systems are 786-0; ACHN; CCRF-CEM; DMS-114; EKVX; Hs-578T; K562; LOX IMVI; M14; MDA-MB-231; MDA-N; NCI-H522; RPMI-8226; SF-268; SF-295; SK-MEL-2; SK-MEL-5; SK-OV-3; SR; SW-620.
Holding throughout (test): NCI tumour cell line growth inhibition, 48 h

Consider 4 compounds from ChEMBL document CHEMBL1201862, “PubChem BioAssay data set” (2004).

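Following 48 hours of exposure in 96-well plates, responses at five concentrations were used to interpolate endpoints linearly. GI50: concentration for 50% inhibition of growth.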 Calls of active or inactive are those of the source. Cut-off read from the data, not from the text of the source: active = GI50 up to about 1.1 µM and inactive = higher.

In the case of `COc1ccc2c(c1)c1ccc3c(c1n2C)C(=O)C=CC3=O`, the GI50 with 786-0 is 6.78 µM (inactive); in the experiment on ACHN, 6.24 µM (inactive); in the experiment with CCRF-CEM, 0.455 µM (active); in the experiment with DMS-114 it was 20.7 µM (inactive); in the experiment with EKVX, 14.1 µM (inactive); in the experiment with Hs-578T it was 8.09 µM (inactive). Besides, the GI50 with K562 was 1.22 µM (inactive); in the experiment on LOX IMVI it was 8.83 µM (inactive); in the experiment on M14 it was 10.4 µM (inactive); in the experiment on MDA-MB-231, 5.18 µM (inactive); in the experiment with MDA-N it was 8.91 µM (inactive); with NCI-H522 it was 3.15 µM (inactive). Also, the GI50 with RPMI-8226 is 2.17 µM (inactive); in the experiment on SF-268 it was 15 µM (inactive); in the experiment on SF-295, 24.3 µM (inactive); with SK-MEL-2, 17.2 µM (inactive); in the experiment on SK-MEL-5, 19.3 µM (inactive); in the experiment on SK-OV-3, 29.2 µM (inactive). The results for the GI50 with SR and with SW-620 were 813 nM (active) and 4.1 µM (inactive), respectively.

For `Cc1nc(Nc2ccc(Cl)c(Cl)c2)sc1C(/C=C/c1ccc2c(c1)OCO2)=N/Nc1ccc([N+](=O)[O-])cc1[N+](=O)[O-]`, the GI50 in the experiment with 786-0 was 20.1 µM (inactive); in the experiment on ACHN it was > 92 µM (inactive); in the experiment on CCRF-CEM it was 80.9 µM (inactive); in the experiment with DMS-114 it was 51.8 µM (inactive); in the experiment with EKVX it was > 100 µM (inactive); in the experiment on Hs-578T, > 74.5 µM (inactive). Also, the GI50 was > 80.4 µM (inactive) with K562; 67 µM (inactive) in the experiment on LOX IMVI; 61.7 µM (inactive) with M14; > 100 µM (inactive) with MDA-MB-231; > 100 µM (inactive) in the experiment on MDA-N; 61 µM (inactive) in the experiment with NCI-H522. In addition, the GI50 with RPMI-8226 is > 82.2 µM (inactive); in the experiment on SF-268, > 100 µM (inactive); with SF-295, 53.3 µM (inactive); in the experiment with SK-MEL-2, > 100 µM (inactive); in the experiment on SK-MEL-5, > 82.8 µM (inactive); in the experiment on SK-OV-3 it was > 91.8 µM (inactive). Also, the GI50 was > 91400 nM (inactive) with SR and > 100 µM (inactive) in the experiment with SW-620.

Turning to `CCC(/C=C/C1OC(=O)C=CC1C)=C\C(C)C/C=C/C(C)=C/C(C)C(=O)C(C)C(O)C(C)C/C(C)=C/C(=O)O` (stereo not given), the GI50 is < 1e-06 µM (active) in the experiment on 786-0; 7.4e-06 µM (active) in the experiment with ACHN; 0.895 µM (active) in the experiment on CCRF-CEM; 0.847 µM (active) in the experiment on DMS-114; 1.92e-05 µM (active) in the experiment on EKVX; 1.44e-05 µM (active) in the experiment with Hs-578T. Moreover, the GI50 in the experiment on K562 was 1.02 µM (active); in the experiment with LOX IMVI, < 1e-06 µM (active); with M14 it was 5.27e-06 µM (active); in the experiment with MDA-MB-231 it was 3.4e-06 µM (active); in the experiment with MDA-N, 2.13e-06 µM (active); with NCI-H522, 0.955 µM (active). Also, the GI50 in the experiment on RPMI-8226 is 1.37 µM (inactive); in the experiment on SF-268, 4.07e-06 µM (active); in the experiment with SF-295, 0.757 µM (active); in the experiment with SK-MEL-2, 4.31 µM (inactive); in the experiment with SK-MEL-5 it was 4.88e-05 µM (active); in the experiment with SK-OV-3 it was 3.11 µM (inactive). Also, the GI50 is < 0.001 nM (active) in the experiment on SR and 1.11 µM (active) in the experiment on SW-620.

For `COc1ccc2c(=O)c(-c3cc(OC)c(OC)cc3OC)coc2c1`, the GI50 is 4.11 µM (inactive) with 786-0; > 82.8 µM (inactive) with ACHN; 1.56 µM (inactive) in the experiment with CCRF-CEM; 3.02 µM (inactive) in the experiment with DMS-114; 36.1 µM (inactive) in the experiment with EKVX; 1.98 µM (inactive) with Hs-578T. Besides, the GI50 in the experiment on K562 was 1.11 µM (active); in the experiment with LOX IMVI, 5.51 µM (inactive); with M14, 4.49 µM (inactive); with MDA-MB-231 it was > 100 µM (inactive); in the experiment with MDA-N it was 0.262 µM (active); in the experiment with NCI-H522, 1.28 µM (inactive). Moreover, the GI50 in the experiment with RPMI-8226 is 2.35 µM (inactive); in the experiment on SF-268, 4.73 µM (inactive); in the experiment on SF-295, 1.66 µM (inactive); with SK-MEL-2, 2.27 µM (inactive); in the experiment on SK-MEL-5, 1.55 µM (inactive); with SK-OV-3, 3.02 µM (inactive). Besides, the results for the GI50 with SR and in the experiment with SW-620 were 1270 nM (inactive) and 2.33 µM (inactive), respectively.
